In US9677045B2, “Microorganisms and methods for production of 4-hydroxybutyrate, 1,4-butanediol and related compounds” (priority 2012, dated 2017):

T1: phosphotransbutyrylase (PTB) (Clostridium acetobutylicum, UniProt P58255)
T1 construct: made in house; host or cells: E. coli, plasmid pZA33-0020-0021, cell extract
T1 sequence (P58255 1-301): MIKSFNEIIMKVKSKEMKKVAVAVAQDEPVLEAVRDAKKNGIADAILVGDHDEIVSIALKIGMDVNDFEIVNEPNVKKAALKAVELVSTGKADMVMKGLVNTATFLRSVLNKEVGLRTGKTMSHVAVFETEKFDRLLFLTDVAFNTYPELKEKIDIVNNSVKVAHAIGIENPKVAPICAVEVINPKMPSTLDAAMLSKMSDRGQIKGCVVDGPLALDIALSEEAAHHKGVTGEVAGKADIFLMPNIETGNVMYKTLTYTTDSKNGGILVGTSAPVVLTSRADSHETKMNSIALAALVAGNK

B1: PTB: phosphotransbutyrylase from C. acetobutylicum (gene 0020) (protein, UniProt P58255 1-301, looked up)
Phosphate butyryltransferase: MIKSFNEIIMKVKSKEMKKVAVAVAQDEPVLEAVRDAKKNGIADAILVGDHDEIVSIALKIGMDVNDFEIVNEPNVKKAALKAVELVSTGKADMVMKGLVNTATFLRSVLNKEVGLRTGKTMSHVAVFETEKFDRLLFLTDVAFNTYPELKEKIDIVNNSVKVAHAIGIENPKVAPICAVEVINPKMPSTLDAAMLSKMSDRGQIKGCVVDGPLALDIALSEEAAHHKGVTGEVAGKADIFLMPNIETGNVMYKTLTYTTDSKNGGILVGTSAPVVLTSRADSHETKMNSIALAALVAGNK

Key:
[1] = test system: BCKA in Bacillus subtilis; details: decarboxylation; cited from earlier work
[2] = target: T1, phosphotransbutyrylase (PTB); assay: PTB enzyme activity, butyryl-CoA to butyryl-phosphate (DTNB); assay type: biochemical; details: extracts of cells with native ptb/bk operon (0020, 0021) in pZA33
Method: The enzyme activity of PTB is measured in the direction of butyryl-CoA to butyryl-phosphate as described in Cary et al. J. Bacteriol. 170:4613-4618 (1988). It provides inorganic phosphate for the conversion, and follows the increase in free CoA with the reagent 5,5′-dithiobis-(2-nitrobenzoic acid), or DTNB. DTNB rapidly reacts with thiol groups such as free CoA to release the yellow-colored 2-nitro-5-mercaptobenzoic acid (TNB), which absorbs at 412 nm with a molar extinction coefficient of 14,140 M cm^−1. The assay buffer contained 150 mM potassium phosphate at pH 7.4, 0.1 mM DTNB, and 0.2 mM butyryl-CoA, and the reaction was started by addition of 2 to 50 μL cell extract. The enzyme activity of BK is measured in the direction of butyrate to butyryl-phosphate formation at the expense of ATP. The procedure is similar to the assay for acetate kinase previously described Rose et al., J. Biol. Chem. 211:737-756 (1954). […] This assay links conversion of ATP to ADP by acetate kinase to the linked conversion of ADP and phosphoenolpyruvate (PEP) to ATP and pyruvate by pyruvate kinase, followed by the conversion of pyruvate and NADH to lactate and NAD+ by lactate dehydrogenase. […] The reaction was started by adding 2 to 50 μL cell extract, and the reaction was monitored based on the decrease in absorbance at 340 nm indicating NADH oxidation. […]

Molecule | activity relative to other branched-chain substrates [1] | specific activity of PTB [2]
O=C(O)CCC(=O)C(=O)O [2-Oxoglutarate] | 5% | 
B1 |  | approximately 5 U/mg
